This note sets out measurements from patent US12150995B2, “IRAK degraders and uses thereof” (Kymera Therapeutics, Inc., priority 2020, dated 2024).

The target in the experiment is T1, IRAK4 (Homo sapiens, UniProt Q9NWZ3).
T1 construct: endogenous in cells; host or cells: OCI-LY10
T1 sequence (Q9NWZ3 1-460): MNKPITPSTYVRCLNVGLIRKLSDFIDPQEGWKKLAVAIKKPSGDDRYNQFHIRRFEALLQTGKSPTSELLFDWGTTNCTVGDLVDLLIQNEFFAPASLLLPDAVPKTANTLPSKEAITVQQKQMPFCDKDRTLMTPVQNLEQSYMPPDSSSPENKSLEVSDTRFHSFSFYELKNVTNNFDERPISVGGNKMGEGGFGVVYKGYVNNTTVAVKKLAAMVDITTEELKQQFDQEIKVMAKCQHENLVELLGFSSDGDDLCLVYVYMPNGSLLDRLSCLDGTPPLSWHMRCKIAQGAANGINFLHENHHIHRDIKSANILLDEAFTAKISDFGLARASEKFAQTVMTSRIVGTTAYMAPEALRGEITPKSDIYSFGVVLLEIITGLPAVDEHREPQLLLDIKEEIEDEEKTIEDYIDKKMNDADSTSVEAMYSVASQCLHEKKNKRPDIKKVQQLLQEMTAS
Kind of experiment: IRAK4 MSD Degradation in OCI-LY10. As to conditions: OCI-LY10 cells, Meso Scale Discovery, incubated 4 to 24 hours. The class given is cell-based. The method, boiled down:
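OCI-LY10 cells (300,000/well) exposed to an 8-point 1:3 series from a top concentration of 1 to 10 μM for 4 to 24 h at 37 °C. IRAK4 remaining in RIPA lysates quantified by MSD sandwich immunoassay; DC50 from a three-parameter logistic fit.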

Some results are limits rather than exact numbers.

Broadly, the DC50 is the concentration giving 50% degradation.

The compound `CC(C)Nc1c(C(=O)N[C@H]2CC[C@H](CN3CCC(c4cccc5c4n(C)c(=O)n5C4CCC(=O)NC4=O)CC3)CC2)cnc2c1Oc1cc(C#N)ccc1O2` (some centres unmarked) [I-309] gave a DC50 below 10 nM.
To `Cn1c(=O)n(C2CCC(=O)NC2=O)c2cccc(C3CC4CCC(C3)N4C[C@H]3CC[C@H](n4cc5cc(NC(=O)c6cccc(C(F)(F)F)n6)ccc5n4)CC3)c21` (single isomer, unassigned) [I-251] belongs below 10 nM; to `CC(C)(O)c1cc2nc([C@H]3CC[C@H](CN4CCN(CCCNc5cccc6c5C(=O)N(C5CCC(=O)NC5=O)C6=O)CC4)CC3)sc2cc1NC(=O)c1cccc(C#N)n1` (some centres unmarked) [I-440], 10 to 50 nM.
Regarding `Cn1c(=O)n(C2CCC(=O)NC2=O)c2cccc(N3CCN(C[C@H]4CC[C@H](n5cc6cc(NC(=O)c7cccc(C(F)(F)F)n7)c([S+](C)[O-])cc6n5)CC4)CC3)c21` (some centres unmarked) [I-308], the DC50 is below 10 nM.
In the case of `C[C@@H]1CN(c2cccc3c(N4CCC(=O)NC4=O)cncc23)CCN1C[C@H]1CC[C@H](n2cc3cc(NC(=O)c4cccc(C(F)(F)F)n4)c(C(C)(C)O)cc3n2)CC1` [I-230], the DC50 was below 10 nM.
The compound `CC(C)Nc1cc(-c2ccc3cc(C#N)cnn23)ncc1-c1cn([C@H]2CC[C@H](CN3CCN(c4cccc5c4n(C)c(=O)n5C4CCC(=O)NC4=O)CC3)CC2)nn1` (some centres unmarked) [I-411] returned a DC50 of 10 to 50 nM.
Take `CN(C[C@H]1CC[C@H](n2cc3cc(NC(=O)c4cccc(C(F)(F)F)n4)ccc3n2)CC1)C1CCN(c2ccc3c(N4CCC(=O)NC4=O)cncc3c2)CC1` [I-319]: the DC50 is 10 to 50 nM.
Take `Cc1nc(C(=O)Nc2cc3cn([C@H]4CC[C@H](CN5CCC(c6cccc7c6n(C)c(=O)n7C6CCC(=O)N(C)C6=O)CC5)CC4)nc3cc2C(C)(C)O)co1` (some centres unmarked) [I-60]: the DC50 was above 200 nM.
For `COc1cc2nn([C@H]3CC[C@H](CN4CCC(c5c(OC)ccc6c5n(C)c(=O)n6C5CCC(=O)NC5=O)CC4)CC3)cc2cc1NC(=O)c1cncc(C#N)c1` (some centres unmarked) [I-195] the value was 10 to 50 nM; for `COc1cc2nn([C@H]3C[C@H](CN4CCC(c5cccc6c(N7CCC(=O)NC7=O)cncc56)CC4)C3)cc2cc1NC(=O)c1cccc(C(F)(F)F)n1` [I-91], 10 to 50 nM.
`CN(C[C@H]1CC[C@H](n2cc3cc(NC(=O)c4cccc(C(F)(F)F)n4)ccc3n2)CC1)C1CCN(c2cccc3c2n(C)c(=O)n3C2CCC(=O)NC2=O)CC1` (some centres unmarked) [I-58] came in with a half-maximal degradation concentration (DC50) below 10 nM.
In the case of `CCc1cc2nn([C@H]3CC[C@H](CN4CCN(c5cccc6c(N7CCC(=O)NC7=O)cncc56)CC4)CC3)cc2cc1NC(=O)c1cccc(C(F)(F)F)n1` [I-377], the half-maximal degradation concentration (DC50) is below 10 nM.
The compound `COc1cc2nn([C@H]3CC[C@H](CN4CC[C@@H](c5cccc6c(N7CCC(=O)NC7=O)cncc56)C4)CC3)cc2cc1NC(=O)c1cccc(C(F)(F)F)n1` [I-291] yielded a 50% degradation concentration (DC50) of 10 to 50 nM.
Turning to `COc1cc2nn([C@H]3C[C@H](CN4CCC(c5c(F)ccc6c5n(C)c(=O)n6C5CCC(=O)NC5=O)CC4)C3)cc2cc1NC(=O)c1cccc(C(F)(F)F)n1` (some centres unmarked) [I-89], the DC50 was 10 to 50 nM.
Take `COc1cc(NC(=O)c2cccc(C(F)(F)F)n2)cc2cn([C@H]3CC[C@H](CN4CCC(c5cccc6c5n(C)c(=O)n6C5CCC(=O)NC5=O)CC4)CC3)nc12` (some centres unmarked) [I-176]: the DC50 is below 10 nM.
The compound `Cc1cc2nn([C@H]3CC[C@H](CN4CCN(c5cccc6c5n(C)c(=O)n6[C@H]5CCC(=O)NC5=O)CC4)CC3)cc2cc1NC(=O)c1cccc(C(F)(F)F)n1` [I-399, N-[2-[4-[[4-[1-[(3S)-2,6-dioxo-3-piperidyl]-3-methyl-2-oxo-benzimidazol-4-yl]piperazin-1-yl]methyl]cyclohexyl]-6-methyl-indazol-5-yl]-6-(trifluoromethyl)pyridine-2-carboxamide] came in with a half-maximal degradation concentration (DC50) of 10 to 50 nM.
For `COc1cc2nn([C@H]3CC[C@H](CN4CCN(c5ccc(N6CCC(=O)NC6=O)cn5)CC4)CC3)cc2cc1NC(=O)c1cccc(C(F)(F)F)n1` [I-313] the value was above 200 nM; for `Cn1c(=O)n(C2CCC(=O)NC2=O)c2cccc(C3CCN(C[C@H]4CC[C@H](n5cc6cc(NC(=O)c7cncc(C#N)c7)c(N7C[C@H]8C[C@@H]7CO8)cc6n5)CC4)CC3)c21` (some centres unmarked) [I-212], above 200 nM.
To `COc1ccc2c(c1N1CCN(C[C@H]3CC[C@H](NC(=O)c4cnc(-c5ccc6cc(C#N)cnn56)cc4NC(C)C)CC3)CC1)n(C)c(=O)n2C1CCC(=O)NC1=O` (some centres unmarked) [I-395] belongs below 10 nM.
`Cc1cccc(C(=O)Nc2cc3sc([C@H]4CC[C@H](CN5CCN(CCCNc6cccc7c6C(=O)N(C6CCC(=O)NC6=O)C7=O)[C@H](C)C5)CC4)nc3cc2C(C)(C)O)n1` (some centres unmarked) [I-452] displayed a DC50 of 10 to 50 nM.
Compound `COc1cc2nn([C@H]3CC[C@H](CN4C5CCC4CN(c4cccc6c4n(C)c(=O)n6C4CCC(=O)NC4=O)C5)CC3)cc2cc1NC(=O)c1cccc(C(F)(F)F)n1` (some centres unmarked) [I-167] returned a DC50 below 10 nM.
`Cc1ccc2c(c1C1CCN(C[C@H]3CC[C@H](n4cc5cc(NC(=O)c6cccc(C(F)(F)F)n6)c(Cl)cc5n4)CC3)CC1)n(C)c(=O)n2C1CCC(=O)NC1=O` (some centres unmarked) [I-73] showed a 50% degradation concentration (DC50) of 10 to 50 nM.
Consider `COc1ccc2c(c1C1CCN(C[C@H]3CC[C@H](n4cc5cc(NC(=O)c6cccc(C(F)(F)F)n6)ccc5n4)CC3)CC1)n(C)c(=O)n2C1CCC(=O)NC1=O` (some centres unmarked) [I-75], for which the DC50 was 10 to 50 nM.
For the compound `CC(C)Nc1cc(-n2ccc3cc(F)cnc32)ncc1C(=O)N[C@H]1CC[C@H](CN2CCN(c3ccc4c(c3)n(C)c(=O)n4C3CCC(=O)NC3=O)CC2)CC1` (some centres unmarked) [I-267], the DC50 is above 200 nM.
`O=C1CCN(c2cncc3c(C4CCN(C[C@H]5CC[C@H](c6nc7cnc(NC(=O)c8cccc(C(F)(F)F)n8)cc7s6)CC5)CC4)cccc23)C(=O)N1` [I-171] gave a DC50 of 10 to 50 nM.
To `COc1ccc2c(c1C1CCN(C[C@H]3C[C@H](n4cc5cc(NC(=O)c6cccc(C(F)(F)F)n6)ncc5n4)C3)CC1)n(C)c(=O)n2C1CCC(=O)NC1=O` (some centres unmarked) [I-421] belongs 50 to 100 nM; to `COc1cc2nn([C@H]3CC[C@H](CN4CCN(c5ccc6c(N7CCC(=O)NC7=O)cncc6c5)CC4)CC3)cc2cc1NC(=O)c1cccc(C(F)(F)F)n1` [I-208], below 10 nM.
To `COc1cc2nc([C@H]3CC[C@H](CN4CCC(c5cccc6c(N7CCC(=O)NC7=O)cncc56)CC4)CC3)sc2cc1NC(=O)c1cccc(C(F)(F)F)n1` [I-191] belongs 10 to 50 nM; to `C=C/C(NCCCN1CCN(C[C@H]2CC[C@H](c3nc4cc(C(C)(C)O)c(NC(=O)c5cccc(C)n5)cc4s3)CC2)C[C@@H]1C)=C1/C(=O)N(C2CCC(=O)NC2=O)C(=O)/C1=C/C` (some centres unmarked) [I-443], 10 to 50 nM.
In turn, `Cn1c(=O)n(C2CCC(=O)NC2=O)c2cccc(C3CCN(C[C@H]4CC[C@H](n5cc6cc(NC(=O)c7cccc(C(F)(F)F)n7)ccc6n5)CC4)C(C(F)(F)F)C3)c21` (some centres unmarked) [I-172] returned a DC50 above 200 nM.
In the case of `COc1ccc2c(c1C1CCN(C[C@H]3C[C@H](n4cc5cc(NC(=O)c6cccc(C(F)(F)F)n6)c(Cl)cc5n4)C3)CC1)n(C)c(=O)n2C1CCC(=O)NC1=O` (some centres unmarked) [I-145], the DC50 lay within 10 to 50 nM.
For `COc1cc2nc([C@H]3CC[C@H](CN4CCC(c5ccc6c(N7CCC(=O)NC7=O)cncc6c5)CC4)CC3)sc2cc1NC(=O)c1cccc(C(F)(F)F)n1` [I-125], the DC50 was below 10 nM.
Consider `COc1cc2nn([C@H]3CC[C@H](CN4CCN(c5ccc(F)c6c(N7CCC(=O)NC7=O)cncc56)CC4)CC3)cc2cc1NC(=O)c1cccc(C(F)(F)F)n1` [I-311], for which the 50% degradation concentration (DC50) was below 10 nM.
To `Cn1c(=O)n(C2CCC(=O)NC2=O)c2cccc(C3CCN(C[C@H]4CC[C@H](n5cc6cc(NC(=O)c7cccc(C(F)(F)F)n7)c(N7CCOCC7)cc6n5)CC4)CC3)c21` (some centres unmarked) [I-38] belongs below 10 nM.
Compound `CC(C)(O)c1cc2nc([C@H]3CC[C@H](C(=O)N4CCC(CCNc5cccc6c5C(=O)N(C5CCC(=O)NC5=O)C6=O)CC4)CC3)sc2cc1NC(=O)c1cccc(C(F)(F)F)n1` (some centres unmarked) [I-491] registered a DC50 of 50 to 100 nM.
`COc1cc2nc([C@H]3CC[C@H](CN(C)CCCNc4cccc5c4C(=O)N(C4CCC(=O)NC4=O)C5=O)CC3)sc2cc1NC(=O)c1cncc(C)c1` (some centres unmarked) [I-459] came in with a DC50 above 200 nM.
The compound `Cc1cccc(C(=O)Nc2cc3sc([C@H]4CC[C@H](CN5C[C@H]6C[C@@H]5CN6CCCNc5cccc6c5C(=O)N(C5CCC(=O)NC5=O)C6=O)CC4)nc3cc2C(C)(C)O)n1` (some centres unmarked) [I-432] showed a DC50 of 100 to 200 nM.
As for `COc1cc2nn([C@H]3CC[C@H](CN(C)[C@H]4CC[C@H](c5cccc6c5n(C)c(=O)n6C5CCC(=O)NC5=O)CC4)CC3)cc2cc1NC(=O)c1cccc(C(F)(F)F)n1` (some centres unmarked) [I-5, N-[2-[4-[[[4-[1-(2,6-dioxo-3-piperidyl)-3-methyl-2-oxo-benzimidazol-4-yl]cyclohexyl]-methyl-amino]methyl]cyclohexyl]-6-methoxy-indazol-5-yl]-6-(trifluoromethyl)pyridine-2-carboxamide], the half-maximal degradation concentration (DC50) was below 10 nM.
To `Cn1c(=O)n(C2CCC(=O)NC2=O)c2cccc(C3CCN(C[C@H]4CC[C@H](n5cc6cc(NC(=O)c7cccc(C(F)(F)F)n7)cc(F)c6n5)CC4)CC3)c21` (some centres unmarked) [I-240] belongs below 10 nM; to `COc1ccc2c(c1N1CCN(C[C@H]3CC[C@H](NC(=O)c4cnc(-n5ccc6cc(C#N)cnc65)cc4NC(C)C)CC3)CC1)n(C)c(=O)n2C1CCC(=O)NC1=O` (some centres unmarked) [I-391], 10 to 50 nM.
In turn, `CC(C)Nc1c(C(=O)N[C@H]2CC[C@H](CN3CCC(c4cccc5c4n(C)c(=O)n5C4CCC(=O)NC4=O)CC3)CC2)cnc2sc(-c3cncs3)cc12` (some centres unmarked) [I-417] showed a half-maximal degradation concentration (DC50) below 10 nM.
